Measured values: ChEMBL document CHEMBL5291721, “A preclinical secondary pharmacology resource illuminates target-adverse drug reaction associations of marketed drugs” (Nat Commun, 2023)

Key:
[1] = target: T1, Alpha-1A adrenergic receptor (Homo sapiens, UniProt P35348); type: functional, cell-based
T1 sequence (P35348 whole entry): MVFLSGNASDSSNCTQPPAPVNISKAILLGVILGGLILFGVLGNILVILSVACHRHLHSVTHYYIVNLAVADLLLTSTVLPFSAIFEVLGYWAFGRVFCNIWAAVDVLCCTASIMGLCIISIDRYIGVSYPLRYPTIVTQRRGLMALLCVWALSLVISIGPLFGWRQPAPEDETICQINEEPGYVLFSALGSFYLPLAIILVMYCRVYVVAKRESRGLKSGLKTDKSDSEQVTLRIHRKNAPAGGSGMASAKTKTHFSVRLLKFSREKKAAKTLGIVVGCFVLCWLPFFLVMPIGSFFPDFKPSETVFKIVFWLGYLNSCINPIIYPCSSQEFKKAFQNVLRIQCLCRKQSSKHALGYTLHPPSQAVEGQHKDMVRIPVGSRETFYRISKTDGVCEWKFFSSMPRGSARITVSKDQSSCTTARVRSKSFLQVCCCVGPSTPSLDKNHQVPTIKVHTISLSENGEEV

[2] = target: T2, Gastrin/cholecystokinin type B receptor (Homo sapiens, UniProt P32239)
T2 sequence (P32239 whole entry): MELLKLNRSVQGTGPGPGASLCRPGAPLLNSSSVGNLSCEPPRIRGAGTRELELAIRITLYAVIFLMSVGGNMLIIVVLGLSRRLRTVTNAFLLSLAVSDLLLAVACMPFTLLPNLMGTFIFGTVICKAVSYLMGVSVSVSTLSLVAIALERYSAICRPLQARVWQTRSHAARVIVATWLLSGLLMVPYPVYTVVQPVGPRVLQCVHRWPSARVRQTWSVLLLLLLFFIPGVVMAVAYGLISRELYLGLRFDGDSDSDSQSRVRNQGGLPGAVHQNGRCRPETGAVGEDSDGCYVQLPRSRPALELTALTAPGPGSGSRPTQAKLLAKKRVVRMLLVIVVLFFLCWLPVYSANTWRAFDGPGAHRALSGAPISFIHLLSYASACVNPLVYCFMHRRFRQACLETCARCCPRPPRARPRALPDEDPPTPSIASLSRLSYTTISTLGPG

Endothelin-1 receptor = target: T3, Endothelin-1 receptor (Homo sapiens, UniProt P25101)
T3 sequence (P25101 whole entry): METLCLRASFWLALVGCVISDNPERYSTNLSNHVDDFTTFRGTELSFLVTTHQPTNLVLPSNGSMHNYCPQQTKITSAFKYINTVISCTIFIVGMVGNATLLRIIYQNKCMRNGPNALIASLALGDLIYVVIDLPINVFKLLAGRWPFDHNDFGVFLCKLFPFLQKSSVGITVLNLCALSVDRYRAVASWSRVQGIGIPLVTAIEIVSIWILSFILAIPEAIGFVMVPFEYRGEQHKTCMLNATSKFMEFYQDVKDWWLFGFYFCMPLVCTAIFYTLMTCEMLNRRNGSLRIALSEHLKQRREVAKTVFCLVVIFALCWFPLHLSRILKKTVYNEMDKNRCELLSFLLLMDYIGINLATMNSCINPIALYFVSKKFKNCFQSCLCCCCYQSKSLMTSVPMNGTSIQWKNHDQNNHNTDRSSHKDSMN

[3] = target: 5-hydroxytryptamine receptor 2A (Homo sapiens, UniProt P28223); type: functional, cell-based
Chain of 5-hydroxytryptamine receptor 2A (P28223 whole entry): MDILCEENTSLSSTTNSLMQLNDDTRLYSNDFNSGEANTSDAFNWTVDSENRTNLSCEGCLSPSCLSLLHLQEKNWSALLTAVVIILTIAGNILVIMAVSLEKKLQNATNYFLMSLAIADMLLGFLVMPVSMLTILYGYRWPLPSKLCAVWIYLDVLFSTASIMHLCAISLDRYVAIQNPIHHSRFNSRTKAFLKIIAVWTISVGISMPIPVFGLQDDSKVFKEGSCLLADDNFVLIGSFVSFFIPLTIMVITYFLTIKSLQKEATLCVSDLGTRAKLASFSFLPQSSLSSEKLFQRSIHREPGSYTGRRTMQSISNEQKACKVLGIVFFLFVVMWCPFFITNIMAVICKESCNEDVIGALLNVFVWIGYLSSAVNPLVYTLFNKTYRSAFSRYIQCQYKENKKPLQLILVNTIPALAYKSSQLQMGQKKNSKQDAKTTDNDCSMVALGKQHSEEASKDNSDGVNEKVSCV

Cannabinoid receptor 1 = Cannabinoid receptor 1 (Homo sapiens, UniProt P21554); type: functional, cell-based
Chain of Cannabinoid receptor 1 (P21554 whole entry): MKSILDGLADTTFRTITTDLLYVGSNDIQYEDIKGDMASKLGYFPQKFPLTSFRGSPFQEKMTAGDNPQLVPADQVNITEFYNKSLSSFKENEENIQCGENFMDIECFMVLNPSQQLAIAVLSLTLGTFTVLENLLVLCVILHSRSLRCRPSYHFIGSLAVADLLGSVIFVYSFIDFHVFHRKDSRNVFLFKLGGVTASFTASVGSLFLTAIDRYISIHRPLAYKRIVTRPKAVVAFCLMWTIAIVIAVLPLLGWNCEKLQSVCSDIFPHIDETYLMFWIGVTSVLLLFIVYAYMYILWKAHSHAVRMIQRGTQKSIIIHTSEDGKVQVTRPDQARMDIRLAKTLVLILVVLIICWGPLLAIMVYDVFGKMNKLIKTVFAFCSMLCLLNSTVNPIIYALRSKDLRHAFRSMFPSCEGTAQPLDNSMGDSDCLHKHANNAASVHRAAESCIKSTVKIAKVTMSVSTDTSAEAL

[4] = target: T4, Gastric inhibitory polypeptide receptor (Homo sapiens, UniProt P48546)
T4 sequence (P48546 whole entry): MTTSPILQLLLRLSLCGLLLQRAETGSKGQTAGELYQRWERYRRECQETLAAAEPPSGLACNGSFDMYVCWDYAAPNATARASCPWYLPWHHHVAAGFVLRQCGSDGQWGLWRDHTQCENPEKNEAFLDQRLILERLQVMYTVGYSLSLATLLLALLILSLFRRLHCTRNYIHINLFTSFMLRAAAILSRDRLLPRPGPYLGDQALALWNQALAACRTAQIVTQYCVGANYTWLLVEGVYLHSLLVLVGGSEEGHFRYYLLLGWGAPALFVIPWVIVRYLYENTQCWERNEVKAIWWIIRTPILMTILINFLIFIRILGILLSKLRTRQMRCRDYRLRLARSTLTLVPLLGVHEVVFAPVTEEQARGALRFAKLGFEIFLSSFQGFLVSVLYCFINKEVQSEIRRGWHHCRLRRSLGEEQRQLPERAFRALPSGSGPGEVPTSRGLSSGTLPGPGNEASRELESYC

[5] = target: T5, 5-hydroxytryptamine receptor 1A (Homo sapiens, UniProt P08908); type: functional, cell-based
T5 sequence (P08908 whole entry): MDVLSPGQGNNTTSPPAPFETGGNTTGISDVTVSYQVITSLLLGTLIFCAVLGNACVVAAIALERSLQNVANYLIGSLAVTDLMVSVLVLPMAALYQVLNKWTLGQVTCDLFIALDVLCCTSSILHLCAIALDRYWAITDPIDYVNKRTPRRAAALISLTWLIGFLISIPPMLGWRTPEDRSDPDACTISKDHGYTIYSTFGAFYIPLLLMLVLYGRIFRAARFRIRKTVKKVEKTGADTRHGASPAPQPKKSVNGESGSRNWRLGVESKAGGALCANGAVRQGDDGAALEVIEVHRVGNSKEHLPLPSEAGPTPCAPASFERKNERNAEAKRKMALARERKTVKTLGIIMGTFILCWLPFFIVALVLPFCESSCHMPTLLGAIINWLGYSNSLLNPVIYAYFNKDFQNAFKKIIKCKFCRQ

[6] = target: T5, 5-hydroxytryptamine receptor 1A
[7] = target: Sodium-dependent dopamine transporter (Homo sapiens, UniProt Q01959)
Chain of Sodium-dependent dopamine transporter (Q01959 whole entry): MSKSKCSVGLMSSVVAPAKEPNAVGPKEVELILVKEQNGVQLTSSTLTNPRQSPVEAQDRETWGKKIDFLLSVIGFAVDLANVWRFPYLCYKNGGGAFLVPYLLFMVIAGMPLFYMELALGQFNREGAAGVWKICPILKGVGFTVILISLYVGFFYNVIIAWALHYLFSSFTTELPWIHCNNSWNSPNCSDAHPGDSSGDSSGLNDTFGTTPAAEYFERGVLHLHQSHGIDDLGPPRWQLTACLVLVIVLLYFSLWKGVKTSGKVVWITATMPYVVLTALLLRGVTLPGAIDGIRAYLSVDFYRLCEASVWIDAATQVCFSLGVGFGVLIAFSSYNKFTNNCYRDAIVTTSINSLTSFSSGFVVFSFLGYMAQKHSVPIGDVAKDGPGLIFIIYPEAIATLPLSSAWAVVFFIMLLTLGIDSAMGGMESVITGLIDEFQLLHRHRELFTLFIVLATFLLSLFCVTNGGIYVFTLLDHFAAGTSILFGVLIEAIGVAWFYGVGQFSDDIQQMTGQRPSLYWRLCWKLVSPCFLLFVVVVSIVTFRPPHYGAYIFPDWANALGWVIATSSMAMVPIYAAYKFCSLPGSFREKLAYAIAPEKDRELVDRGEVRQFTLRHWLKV

Thromboxane A2 receptor = target: T6, Thromboxane A2 receptor (Homo sapiens, UniProt P21731); type: functional, cell-based
T6 sequence (P21731 whole entry): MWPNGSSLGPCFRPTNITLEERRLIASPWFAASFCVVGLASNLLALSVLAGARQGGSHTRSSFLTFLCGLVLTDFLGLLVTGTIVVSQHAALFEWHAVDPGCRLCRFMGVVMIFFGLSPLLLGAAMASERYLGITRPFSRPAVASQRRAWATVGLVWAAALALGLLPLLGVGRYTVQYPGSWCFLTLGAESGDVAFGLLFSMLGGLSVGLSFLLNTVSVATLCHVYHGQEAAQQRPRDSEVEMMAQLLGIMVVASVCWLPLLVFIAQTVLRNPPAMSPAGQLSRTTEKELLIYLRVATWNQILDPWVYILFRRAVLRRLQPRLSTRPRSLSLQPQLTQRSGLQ
Also: assay procedure not described here.

CCCCN1C[C@H](O)[C@@H](O)[C@H](O)[C@H]1CO gave an AC50 [1] greater than 30 µM, an AC50 [2] greater than 30 µM and an AC50 (Endothelin-1 receptor) greater than 30 µM. The AC50 [3] was greater than 30 µM.
For CCOC(=O)[C@H](CCc1ccccc1)N[C@@H](C)C(=O)N1[C@H](C(=O)O)C[C@@H]2CCC[C@@H]21, the AC50 [1] was greater than 30 µM, the AC50 [2] was greater than 30 µM and the AC50 (Cannabinoid receptor 1) was greater than 30 µM. The AC50 (Endothelin-1 receptor) was greater than 30 µM, the AC50 [4] was greater than 30 µM and the AC50 [5] was greater than 10 µM.
In the case of Nc1nc(NC2CC2)c2ncn([C@H]3C=C[C@@H](CO)C3)c2n1 [ABACAVIR], the AC50 [1] is reported as greater than 30 µM, the AC50 [2] is reported as greater than 30 µM and the AC50 (Cannabinoid receptor 1) is reported as greater than 30 µM. For the same compound, the AC50 (Endothelin-1 receptor) was greater than 30 µM and the AC50 [3] was greater than 30 µM.
For CC(=O)NCCCS(=O)(=O)O [ACAMPROSATE], the AC50 [1] was greater than 30 µM, the AC50 [2] was greater than 30 µM and the AC50 (Cannabinoid receptor 1) was greater than 30 µM. For the same compound, the AC50 (Endothelin-1 receptor) was greater than 30 µM, the AC50 [5] was greater than 30 µM and the AC50 [3] was greater than 30 µM.
For COc1cc2nc(N(C)CCCNC(=O)C3CCCO3)nc(N)c2cc1OC (stereo unspecified) [ALFUZOSIN], the AC50 [2] was greater than 30 µM, the AC50 (Cannabinoid receptor 1) was greater than 30 µM and the AC50 (Endothelin-1 receptor) was greater than 30 µM. It also gave an AC50 [3] greater than 30 µM.
Work on C=CCc1ccccc1OCC(O)CNC(C)C (stereo unspecified) [ALPRENOLOL] yielded an AC50 [1] greater than 30 µM, an AC50 [2] greater than 30 µM and an AC50 (Cannabinoid receptor 1) greater than 30 µM. It also gave an AC50 (Endothelin-1 receptor) greater than 30 µM, an AC50 [5] of 4.8 µM and an AC50 [6] of 0.0146 µM. It also gave an AC50 [3] greater than 30 µM, an AC50 [7] greater than 0.3 µM and an AC50 (Thromboxane A2 receptor) greater than 0.3 µM.
Work on CNC(=O)c1ccccc1Sc1ccc2c(/C=C/c3ccccn3)n[nH]c2c1 [AXITINIB] yielded an AC50 [1] greater than 30 µM, an AC50 (Cannabinoid receptor 1) greater than 30 µM and an AC50 (Endothelin-1 receptor) greater than 30 µM. For the same compound, the AC50 [5] was greater than 30 µM and the AC50 [3] was greater than 30 µM.
In the case of Cc1ccc(-c2cc(C(F)(F)F)nn2-c2ccc(S(N)(=O)=O)cc2)cc1 [CELECOXIB], the AC50 [1] is reported as greater than 30 µM, the AC50 [2] is reported as greater than 10 µM and the AC50 (Cannabinoid receptor 1) is reported as greater than 30 µM. For the same compound, the AC50 (Endothelin-1 receptor) was greater than 30 µM, the AC50 [4] was greater than 30 µM and the AC50 [5] was greater than 10 µM.
Compound CN1C(=O)CCS(=O)(=O)C1c1ccc(Cl)cc1 (stereo unspecified) [CHLORMEZANONE] has an AC50 [5] greater than 10 µM and an AC50 [3] greater than 10 µM.
O=C(Cc1ccc(-c2ccccc2)cc1)Nc1ccccn1 [DIFENPIRAMIDE] was tested, and the AC50 [1] was greater than 30 µM, the AC50 (Cannabinoid receptor 1) was greater than 30 µM and the AC50 [6] was greater than 30 µM. The AC50 [3] was greater than 30 µM, the AC50 [7] was 0.58 µM and the AC50 (Thromboxane A2 receptor) was greater than 30 µM.
Compound O=C1Nc2ccc(Cl)cc2[C@@](C#CC2CC2)(C(F)(F)F)O1 [EFAVIRENZ] has an AC50 [1] greater than 30 µM, an AC50 [2] of 45 µM and an AC50 (Cannabinoid receptor 1) greater than 30 µM. For the same compound, the AC50 (Endothelin-1 receptor) was greater than 30 µM and the AC50 [5] was greater than 10 µM.
O=C(OCC(O)CO)c1ccccc1Nc1ccnc2cc(Cl)ccc12 (stereo unspecified) [GLAFENINE] gave an AC50 [1] greater than 30 µM, an AC50 (Cannabinoid receptor 1) greater than 30 µM and an AC50 (Endothelin-1 receptor) greater than 30 µM. The AC50 [5] was greater than 30 µM, the AC50 [6] was greater than 30 µM and the AC50 [3] was greater than 30 µM. It also gave an AC50 [7] greater than 30 µM and an AC50 (Thromboxane A2 receptor) greater than 30 µM.
CN1C(C(=O)Nc2ccccn2)=C(O)c2sc(Cl)cc2S1(=O)=O [LORNOXICAM] was tested, and the AC50 [1] was greater than 30 µM, the AC50 [2] was greater than 30 µM and the AC50 (Cannabinoid receptor 1) was greater than 30 µM. For the same compound, the AC50 [5] was greater than 10 µM and the AC50 [3] was greater than 30 µM.
